Article PMC4153658, “A Pentasymmetric Open Channel Blocker for Cys-Loop Receptor Channels” (PLoS ONE, 2014)
“And” between values parts separate entries of the source, which are not always exact repeats. Identical values can stand only once. Like-named read-outs stand apart in the source and are kept apart here.

Tests used:
[1] = tested on: non-injected oocytes; assay: Currents induced in non-injected Xenopus oocytes; format: cell-based, Xenopus laevis; conditions: holding potential −80 mV
[2] = target: T1, α1T267Cβ2γ2 GABAA receptor (Rattus norvegicus, UniProt P18508+P62813+P63138, T294C); assay: Two-electrode voltage clamp, mutant α1T267Cβ2γ2 in Xenopus oocytes; format: cell-based
T1 construct: expressed in transfected cells; host or cells: Xenopus laevis oocytes, cRNA injection
Experimental: (§1) Capped cRNAs were synthesized from the linearized plasmids. A poly-A tail of about 400 residues was added to each transcript using yeast poly-A polymerase. The concentration of the cRNA was quantified on a formaldehyde gel using Radiant Red stain for visualization of the RNA. Known concentrations of RNA ladder were loaded as standard on the same gel. cRNAs were precipitated in ethanol/isoamylalcohol 19∶1, the dried pellet dissolved in water and stored at −80°C. Xenopus oocytes were prepared, injected and defollicated as described previously (Research approved by the Kantonstierarzt, Kantonaler Veterinärdienst Bern (Animal research permit BE98/12)). Briefly, Xenopus laevis oocytes were injected with 50 nL of the cRNA solution containing wild type or mutated α1, β2 and γ2 subunits at a concentration of 10 nM: 10 nM: 50 nM and then incubated in modified Barth's solution at 18°C for at least 24 h before the measurements. […] Currents were measured using a home-built two-electrode voltage clamp amplifier in combination with a XY-recorder or digitized using a PowerLab 2/20 (AD Instruments) using the computer program Chart. Tests with a model oocyte were performed to ensure linearity in the larger current range. […] Similar experiments were performed with picrotoxin. […]

[3] = tested on: Glycine heteromeric receptors; assay: Inhibition of heteromeric glycine receptors expressed in Xenopus oocytes; format: cell-based; conditions: compared with GABAA receptors
[4] = target: T2, α1L263Cβ2γ2 GABAA receptor (Rattus norvegicus, UniProt P18508+P62813+P63138, L290C); assay: Two-electrode voltage clamp, mutant α1L263Cβ2γ2 in Xenopus oocytes; format: cell-based
T2 construct: expressed in transfected cells; host or cells: Xenopus laevis oocytes, cRNA injection
Experimental: as §1

[5] = target: T3, α1T264Cβ2γ2 GABAA receptor (Rattus norvegicus, UniProt P18508+P62813+P63138, T291C); assay: Two-electrode voltage clamp, mutant α1T264Cβ2γ2 in Xenopus oocytes; format: cell-based
T3 construct: expressed in transfected cells; host or cells: Xenopus laevis oocytes, cRNA injection
Experimental: as §1

[6] = target: T4, α1T260Cβ2γ2 GABAA receptor (Rattus norvegicus, UniProt P18508+P62813+P63138, T287C); format: cell-based; conditions: read-out: IC50 mean ± SD for inhibition of GABA-activated current
T4 construct: expressed in transfected cells; host or cells: Xenopus laevis oocytes, cRNA injection
Experimental: (§2) Capped cRNAs were synthesized from the linearized plasmids. A poly-A tail of about 400 residues was added to each transcript using yeast poly-A polymerase. The concentration of the cRNA was quantified on a formaldehyde gel using Radiant Red stain for visualization of the RNA. Known concentrations of RNA ladder were loaded as standard on the same gel. cRNAs were precipitated in ethanol/isoamylalcohol 19∶1, the dried pellet dissolved in water and stored at −80°C. Xenopus oocytes were prepared, injected and defollicated as described previously (Research approved by the Kantonstierarzt, Kantonaler Veterinärdienst Bern (Animal research permit BE98/12)). Briefly, Xenopus laevis oocytes were injected with 50 nL of the cRNA solution containing wild type or mutated α1, β2 and γ2 subunits at a concentration of 10 nM: 10 nM: 50 nM and then incubated in modified Barth's solution at 18°C for at least 24 h before the measurements. […] Currents were measured using a home-built two-electrode voltage clamp amplifier in combination with a XY-recorder or digitized using a PowerLab 2/20 (AD Instruments) using the computer program Chart. Tests with a model oocyte were performed to ensure linearity in the larger current range. […] Similar experiments were performed with picrotoxin. Due to the difficulty of washing out picrotoxin out from the oocytes two different oocytes were used to test the inhibition before and after the treatment with the cysteine reactive compound. Inhibition after treatment was divided by % inhibition before treatment. To test the ability of PCCP^− to protect the engineered cysteines from covalent modification by MTSET^+, we used the same sequence of perfusion except that MTSET^+ was co-applied with 1 mM PCCP^−. Results were obtained on 3–4 single oocytes for each receptor.

[7] = tested on: α1T260Cβ2γ2 GABAA receptor; format: cell-based, rat
Experimental: as §2

[8] = target: T5, α1β2γ2 rat GABAA receptors (Rattus norvegicus); assay: Concentration inhibition curve, first receptor named in b22 / Figure 4A; format: cell-based; conditions: GABA EC10; n = 4; receptor printed as α1β2γ2
T5 construct: expressed in transfected cells; host or cells: Xenopus laevis oocytes, cRNA injection
Experimental: as §1

[9] = tested on: Glycine homomeric receptors; assay: Inhibition of homomeric glycine receptors expressed in Xenopus oocytes; format: cell-based; conditions: compared with GABAA receptors
[10] = target: T6, α1A253Cβ2γ2 GABAA receptor (Rattus norvegicus, UniProt P18508+P62813+P63138, A280C); assay: Two-electrode voltage clamp, mutant α1A253Cβ2γ2 in Xenopus oocytes; format: cell-based; conditions: read-out: IC50 mean ± SD for inhibition of GABA-activated current
T6 construct: expressed in transfected cells; host or cells: Xenopus laevis oocytes, cRNA injection
Experimental: as §1

[11] = tested on: cysteine mutant α1β2γ2 GABAA receptors; assay: Protection of engineered cysteines from covalent modification by MTSET^+ + GABA; format: cell-based, rat; conditions: 1 mM inhibitor present during MTSET^+ + GABA application
Experimental: as §1

[12] = target: ELIC (Dickeya chrysanthemi, UniProt P0C7B7); conditions: read-out: Concentration required for half-maximal inhibition
Experimental: as §1

[13] = target: T7, α1β2γ2 rat GABAA receptors (Rattus norvegicus, UniProt P18508+P62813+P63138); format: cell-based; conditions: for IC50: GABA EC10
T7 construct: expressed in transfected cells; host or cells: Xenopus laevis oocytes, cRNA injection
Experimental: as §2

[14] = target: T8, α1V256Cβ2γ2 GABAA receptor (Rattus norvegicus, UniProt P18508+P62813+P63138, V283C); assay: Two-electrode voltage clamp, mutant α1V256Cβ2γ2 in Xenopus oocytes; format: cell-based; conditions: for IC50: read-out: IC50 mean ± SD for inhibition of GABA-activated current
T8 construct: expressed in transfected cells; host or cells: Xenopus laevis oocytes, cRNA injection
Experimental: as §2

[15] = tested on: RDL Drosophila GABAA receptors, mutation A302S versus wild type; assay: Concentration inhibition curves in wild type and mutant RDL Drosophila GABAA receptor; format: cell-based; conditions: GABA EC10
[16] = target: T9, α1T261Cβ2γ2 GABAA receptor (Rattus norvegicus, UniProt P18508+P62813+P63138, T288C); assay: Two-electrode voltage clamp, mutant α1T261Cβ2γ2 in Xenopus oocytes; format: cell-based; conditions: read-out: IC50 mean ± SD for inhibition of GABA-activated current
T9 construct: expressed in transfected cells; host or cells: Xenopus laevis oocytes, cRNA injection
Experimental: as §1

[17] = target: T10, α1β2δ rat GABAA receptors (Rattus norvegicus, UniProt P18506+P62813+P63138); assay: Concentration inhibition curve, α1β2δ GABAA receptors in Xenopus oocytes; format: cell-based; conditions: GABA EC10; n = 4
T10 construct: expressed in transfected cells; host or cells: Xenopus laevis oocytes, cRNA injection

[18] = read-out: IC50 mean ± SD for inhibition of GABA-activated current
[19] = wild type, end of 1 min co-application, −80 mV, read-out: IC50 mean ± SD for inhibition of GABA-activated current

N#CC1=C(C#N)C(C#N)C(C#N)=C1C#N [PCCP^−, pentacyanocyclopentdienyl anion]
Concentration inducing a current in non-injected oocytes [1]: ≥ 10 µM | Change in % inhibition after MTSET^+ + GABA treatment [2]: significant increase | IC50 [2, 18]: 770 ± 110 nM | Inhibition by PCCP^− [3]: similarly inhibited | Change in ratio of % inhibition after/before MTSET^+ treatment in the absence of GABA [4]: significant increase | Change in % inhibition after MTSET^+ + GABA treatment ([4]; printed α1T263Cβ2γ2, 5 mM MTSET^+ + 100 µM GABA, inhibitor at about IC50): significant increase | Change in % inhibition after MTSET^+ + GABA treatment [5]: significant increase | IC50 [5, 18]: 3150 ± 480 nM | IC50 [6]: 850 ± 460 nM | Change in % inhibition after MTSET^+ + GABA treatment [7]: significant increase | IC50 [8]: 12500 ± 4800 nM | Inhibition by PCCP^− [9]: similarly inhibited | IC50 [10]: 2630 ± 310 nM | Prevention of the MTSET^+ + GABA induced change in inhibitor sensitivity [11]: could be prevented | IC50 [12]: ~100000 nM | Concentrations inducing an open-channel block ([13]; GABA EC1, apparent desensitization and off-current): > 1 µM | Inhibition of recombinant α1β2γ2 GABAA receptors, preliminary evaluation ([13]; compounds 1–4 tested): highly active | Concentrations at which currents were stimulated ([13]; currents elicited by low GABA (EC1), highly variable between oocytes): 0.3 to 10 µM | δ, fraction of the voltage field sensed by the blocker from the outside of the membrane ([13]; estimated with Woodhull equation from IC50 at −120, −80, −40 mV): ~0.7 | IC50 ([13]; membrane potential −40 mV, n = 3, read-out: IC50): 1800 ± 800 nM | IC50 ([13]; membrane potential −80 mV, voltage-dependence experiment, n = 3, read-out: IC50): 6300 ± 1300 nM | IC50 ([13]; membrane potential −120 mV, n = 3, read-out: IC50): 16200 ± 1300 nM | Shift of the GABA concentration response curve ([13]; presence of 2 µM or 10 µM PCCP^−, currents after 1 min GABA): leftward shift | IC50 [13, 19]: 2600 nM and 2580 nM | Effect of MTSET^+ + GABA treatment on the affinity for PCCP^− ([13]; wild type, treatment applied for 1 min): no effect | Change in % inhibition after MTSET^+ + GABA treatment [14]: significant increase | IC50 [14]: 62200 ± 22400 nM | Reduction in sensitivity (difference in IC50) between wild type and mutant receptors [15]: about 2 fold | IC50 [16]: 46400 ± 7250 nM | IC50 [17]: 710 ± 280 nM

C[N+](C)(C)CCSS(C)(=O)=O [MTSET^+, reference compound]
Effect of treatment with cysteine reactive compound on wild type receptors ([13]; wild type, preliminary experiments): unaffected

picrotoxin [reference compound]
IC50 ([6]; α1T260C mutant, GABA EC10, −80 mV, before MTSET^+ treatment): 1310 ± 410 nM | Change in % inhibition after MTSET^+ + GABA treatment ([7]; α1T260C mutant, 5 mM MTSET^+ + 100 µM GABA, inhibitor at about IC50): significant decrease | Prevention of the MTSET^+ + GABA induced change in inhibitor sensitivity [11]: could not be prevented | IC50 [13, 19]: 2020 ± 890 nM | Change in % inhibition after MTSET^+ + GABA treatment [14]: significant decrease | IC50 [14]: 740 ± 360 nM | Reduction in sensitivity (difference in IC50) between wild type and mutant receptors [15]: 7 fold
